In ChEMBL document CHEMBL1125705, “Imidazo[4,5-b]quinoxaline cyanines as neurokinin antagonists” (J Med Chem, 1991):

What was measured:
Neuromedin-K receptor = molecular target: T1, Neuromedin-K receptor (Rattus norvegicus, UniProt P16177); assay: Binding affinity of compound was evaluated towards tachykinin receptor 3 by using radioligand [[…]]eledoisin in rat cortex
T1 sequence (P16177 whole entry): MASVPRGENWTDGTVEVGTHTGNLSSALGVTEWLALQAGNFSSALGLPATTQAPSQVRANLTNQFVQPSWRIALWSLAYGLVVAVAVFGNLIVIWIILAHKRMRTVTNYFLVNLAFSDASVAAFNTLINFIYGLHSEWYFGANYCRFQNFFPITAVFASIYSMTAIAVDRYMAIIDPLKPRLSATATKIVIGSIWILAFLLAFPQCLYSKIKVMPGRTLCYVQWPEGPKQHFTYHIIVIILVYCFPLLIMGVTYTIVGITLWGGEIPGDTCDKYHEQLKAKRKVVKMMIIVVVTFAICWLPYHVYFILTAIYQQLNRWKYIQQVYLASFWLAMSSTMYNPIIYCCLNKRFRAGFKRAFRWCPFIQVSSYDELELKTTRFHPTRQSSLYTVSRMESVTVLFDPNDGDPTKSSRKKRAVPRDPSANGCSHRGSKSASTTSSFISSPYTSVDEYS

Substance-K receptor = molecular target: T2, Substance-K receptor (Rattus norvegicus, UniProt P16610); assay: Binding affinity of compound was evaluated towards tachykinin receptor 2 by using radioligand ([125I]-NKA in rat duodenum
T2 sequence (P16610 whole entry): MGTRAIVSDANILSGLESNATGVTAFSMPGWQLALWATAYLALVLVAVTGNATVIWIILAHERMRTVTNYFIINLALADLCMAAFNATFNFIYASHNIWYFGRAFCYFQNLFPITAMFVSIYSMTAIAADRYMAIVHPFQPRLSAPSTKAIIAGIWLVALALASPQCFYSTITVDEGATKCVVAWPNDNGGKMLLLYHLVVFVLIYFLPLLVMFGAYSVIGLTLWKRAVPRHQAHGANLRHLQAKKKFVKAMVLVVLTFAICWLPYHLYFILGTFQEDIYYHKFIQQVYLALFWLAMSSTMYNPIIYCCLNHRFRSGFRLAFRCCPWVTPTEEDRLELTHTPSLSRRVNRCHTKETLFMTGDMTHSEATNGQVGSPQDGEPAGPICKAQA

Substance-P receptor = Substance-P receptor (Rattus norvegicus, UniProt P14600); assay: Binding affinity for tachykinin receptor 1 from rat forebrain tissue, [125I]-BH-SP as radioligand
Substance-P receptor, sequence (P14600 whole entry): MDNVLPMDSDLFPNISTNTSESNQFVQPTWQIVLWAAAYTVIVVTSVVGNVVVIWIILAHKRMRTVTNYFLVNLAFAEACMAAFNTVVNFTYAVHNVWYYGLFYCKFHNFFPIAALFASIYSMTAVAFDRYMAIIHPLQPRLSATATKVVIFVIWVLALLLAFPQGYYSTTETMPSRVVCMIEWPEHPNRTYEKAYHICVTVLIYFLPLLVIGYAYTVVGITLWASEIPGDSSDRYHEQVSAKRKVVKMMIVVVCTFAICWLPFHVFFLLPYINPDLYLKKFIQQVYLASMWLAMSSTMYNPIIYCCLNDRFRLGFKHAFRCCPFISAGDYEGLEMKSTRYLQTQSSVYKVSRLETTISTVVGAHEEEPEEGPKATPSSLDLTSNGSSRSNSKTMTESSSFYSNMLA

| SMILES | IC50 (Neuromedin-K receptor) [nM] | IC50 (Substance-K receptor) [nM] | IC50 (Substance-P receptor) [nM] |
| --- | --- | --- | --- |
| CCn1c(/C=C/C=C2\N(C)c3ccccc3C2(C)C)[n+](CC)c2nc3ccccc3nc21 | 3300 | 1700 |  |
| CCn1c(/C=C/C=C/N2CCCC2)[n+](CC)c2nc3ccccc3nc21 |  |  | > 10000 |
| CCn1c(/C=C/C=C2/N(C)c3ccccc3C2(C)C)[n+](CC)c2nc3cc(Cl)c(Cl)cc3nc21 |  |  | 1100 |
| CCn1c(/C=C/C=C2/N(C)c3ccccc3C2(C)C)[n+](CCCC(=O)O)c2nc3ccccc3nc21 |  |  | 1400 |
| CCn1c(/C=C/C=C2/N(C)c3ccccc3C2(C)C)[n+](CCCN(C)C)c2nc3ccccc3nc21 |  |  | 1300 |
| CCn1c(/C=C/C=C2/N(C)c3ccccc3C2(C)C)[n+](CC(N)=O)c2nc3ccccc3nc21 |  |  | 2000 |
| CCn1c(/C=C/C=C2/N(CCO)c3ccccc3C2(C)C)[n+](CC)c2nc3ccccc3nc21 |  |  | 1000 |
| CCn1c(/C=C/C=C2\C3C=CCc4cccc(c43)N2C)[n+](CC)c2nc3ccccc3nc21 (stereo not given) |  |  | 850 |
| CCn1c(/C=C/C=C2/N(CC(=O)N(C)C)c3ccccc3C2(C)C)[n+](CC)c2nc3ccccc3nc21 |  |  | 2600 |

Next, values leading:

| IC50 (Neuromedin-K receptor) [nM] | IC50 (Substance-K receptor) [nM] | IC50 (Substance-P receptor) [nM] | SMILES |
| --- | --- | --- | --- |
|  |  | 700 | CCn1c(/C=C/C=C2\Sc3ccccc3N2C)[n+](CC)c2nc3ccccc3nc21 |
|  |  | 850 | CCOC(=O)CCC[n+]1c(/C=C/C=C2/N(C)c3ccccc3C2(C)C)n(CC)c2nc3ccccc3nc21 |
|  |  | 350 | CCn1c(/C=C/C=C2/N(C)c3ccccc3C2(C)C)[n+](CCCO)c2nc3ccccc3nc21 |
|  |  | 410 | CCn1c(/C=C/C=C2/N(C)c3ccccc3C2(C)C)[n+](CCCOC(C)=O)c2nc3ccccc3nc21 |
|  |  | 390 | CCN1/C(=C/C=C/c2n(CC)c3nc4ccccc4nc3[n+]2CC)C(C)(C)c2ccccc21 |
